In patent US7635708B2, “Methods and pharmaceutical compositions for inhibiting tumor cell growth” (Dana-Farber Cancer Institute, priority 1996, dated 2009):
Read-outs that look alike come from different tables or passages of the source.

Key:
[1] = test system: primary liposarcoma cells; experiment: Adipocyte differentiation of primary cells isolated from three human liposarcomas (LS857, LS175, LS707); format: cell-based; details: 7 days (pioglitazone 10 μM)
Procedure: (§1) BrdU labeling was performed using the labeling kit (Boehringer Mannheim) according to the manufacturers instructions.
To address this possibility, primary cells isolated from three human liposarcomas were cultured in vitro (see Materials and Methods). Primary cell strains LS857 and LS175 were derived from well differentiated tumors and LS707 was derived from a myxoid tumor (see table 2). […] A primary leiomyosarcoma cell line LM203 was cultured as a control. To confirm that these cultures consisted of malignant tumor-derived cells, cytogenetic analysis was performed.

[2] = test system: HIB1B cells; experiment: Adipose cell tumors from HIB1B cells implanted in nude mice; format: in vivo; details: for Tumor volume (mean (SD)): 0.2% mixture with powder food
Procedure: HIB1B cells (2×10^6 cells/animal) were injected subcutaneously to the upper back of twenty four male nude mice (7 weeks NCR […]). Thirteen days after injection, mice were treated with troglitazone (0.2% mixture with powder food). The development of tumor volume (measured in mm^3) was determined at days 14, 19 and 26 after troglitazone treatment compared to untreated controls. Each point represents the mean±[…] (SD) from 12 mice (except the last point, where n=11) treated or untreated with troglitazone for the indicated time intervals. To evaluate changes in tumor size, mean (SD) from 11-12 cases for each group of animal were examined to ensure an 85% chance of detecting a statistically significant difference (assuming a 2-sided sample t-test). […] Points A-C and D-F represent untreated and troglitazone-treated animals, respectively. Each point represents the mean±standard deviation from 12 mice (except the last point, where n=11). Statistically significant decreases in tumor volume were detected in implanted mice treated with troglitazone compared to untreated controls. […] The tumor volume was determined after 14, 19 and 26 days of treatment. Volumes are indicated with and without outlier points in each group of animals. A comparison of the tumor volume by two-sided 2-sample t-test after 26 days of treatment indicates p=0.0019 (without outlier); p=0.037 (with outlier). To evaluate the tumor increase over time, repeated measures analysis of variance were determined, p=0.0014 without outlier; p=0.044 with outlier.

[3] = test system: NIH-vector cells; experiment: BrdU incorporation, NIH-vector cells; format: cell-based
From the text: (§2) […]. […] […].

[4] = test system: HIB1B cells; experiment: BrdU incorporation, HIB1B cells; format: cell-based, mice
From the text: as §2

[5] = test system: 3T3-F442A preadipocytes; experiment: BrdU incorporation, 3T3-F442A preadipocytes; format: cell-based
From the text: as §2

[6] = test system: LS857 cells; experiment: Adipocyte differentiation of primary liposarcoma cells LS857; format: cell-based, human
Procedure: (§3) Primary liposarcoma cells were isolated from selected freshly harvested tumors as described previously (Fletcher, J. A. et al. (1991) NEJM 324:436-443) and references therein. Primary cells were plated at a density of at least 2×10^5 cells/ml and cultured in 60 mm dishes in RPMI containing 15% Cosmic Calf Serum (Hyclone) and 5 μ/ml insulin. […] The NIH-PPARγ and NIH-vector cells were derived by retroviral infection as described (Tontonoz, P. et al., (1994) supra). Differentiated cells were stained for neutral lipid with Oil Red-O (Green, H. and Kehinde, O. (1974) Cell 1:113-116). BrdU labeling was performed using the labeling kit (Boehringer Mannheim) according to the manufacturers instructions.
Liposarcomas have presumably acquired one or more genetic defects that interferes with the course of normal adipocyte development (Crozat, A. et al., (1993) Nature 363:640-644; Fletcher, J. A. et al., (1991) supra). […]
When cultured in the presence of fetal bovine serum and insulin, conditions permissive for adipocyte differentiation, all three cell lines maintain a fibroblastic morphology. […] This experiment was performed at least twice with each cell strain with quantitatively and qualitatively similar results. […]

[7] = test system: LS175 cells; experiment: Adipocyte differentiation of primary liposarcoma cells LS175; format: cell-based, human; details: 10 μM, 7 days
[8] = test system: LM203 lieomyosarcoma cells; experiment: Lipid accumulation in primary leiomyosarcoma cell line LM203 (control); format: cell-based, human; details: which do not express PPARγ
[9] = test system: NIH-PPARγ cells; experiment: Adipocytic differentiation (percent lipid-containing cells) of NIH-PPARγ cells; format: cell-based
Procedure: as §1
(§4) Extent of adipocytic differentiation is indicated as the percentage of lipid-containing cells.

[10] = test system: NIH-vector cells; experiment: Adipocytic differentiation (percent lipid-containing cells) of NIH-vector cells; format: cell-based; details: for percent lipid-containing cells: NIH-vector, confluent cells, 7 days, 1 μM pioglitazone, 50 nM LG268
Procedure: as §3
We hypothesized that simultaneous exposure of competent cells to both PPARγ and R×R-specific ligands might provide a stronger adipogenic signal than a PPARγ ligand alone. The ability of the R×R-specific ligand LG268 to promote adipocyte differentiation was investigated using NIH-3T3 fibroblasts that express PPARγ from a retroviral vector (Tontonoz, P. et al. (1994) supra). We have previously shown that wild-type NIH-3T3 cells express R×Rα but not PPARγ. […] Similar results were obtained with the preadipocyte cell lines 3T3-L1 and 3T3-F442A which express both PPARγ and R×Rα (data not shown).
as §4

[11] = test system: aP2 and adipsin; experiment: Northern analysis of adipocyte-specific markers in LS857 liposarcoma cells; format: cell-based, human; details: Northern blotting
[12] = test system: human liposarcoma cells (LS 857); experiment: BrdU labeling and lipid staining of LS857 liposarcoma cells after induced differentiation (growth arrest); format: cell-based
[13] = test system: NIH-PPARγ cells
Procedure: BrdU incorporation experiment was performed as described in the protocol provided by the supplier (Boehringer Mannheim Biochemical). Briefly, cells grown on coverslips were labeled with 10 μM BrdU for 1 hr. Samples were washed and fixed with ethanol-glycine buffer and incubated with anti-BrdU monoclonal antibody. After incubation with anti-mouse-Ig-alkaline phosphatase followed by the substrate reaction, bound anti-BrdU antibody was visualized by light microscopy.
Cells undergoing DNA synthesis during exposure to BrdU were determined by immunohistochemical staining and considered as BrdU positive. The data represents the average of two independent experiments in which approximately 400 cells were counted per sample.

[14] = test system: NIH-PPARγ cells; details: at the concentrations used (pioglitazone 5 μM, BRL49653 1 μM)
Procedure: 48 hr after transfection viral supernatants were collected and NIH3T3 cells were infected at 50% confluence with equal titers of recombinant virus. The supernatants were applied to the cells in DMEM containing 10% cosmic calf serum (Hyclone) and 4 μg/ml of polybrene. 24 hr after infection, cells were split and plated in DMEM containing 10% calf serum and 2 μg/ml puromycin to select infected cells. NIH-3T3 cell lines infected with empty vector or with viral expression vectors containing wild type or mutant forms of PPARγ cDNA as well as HIB1B and 3T3-F442A cell lines were cultured in DMEM containing 10% cosmic calf serum.
The same number of NIH-PPARγ, NIH-vector or HIB1B cells were cultured either in the presence (+) or absence (−) of PPARγ ligands. Cell numbers were determined at the indicated time points. The effect of ligands on cell growth is represented as percentage decrease in cell numbers in the treated plates relative to untreated control plates.

[15] = LS857, pioglitazone withdrawn 48 hours, then BrdU 48 hours

## Cc1c(C)c2c(c(C)c1O)CCC(C)(COc1ccc(CC3SC(=O)NC3=O)cc1)O2 (stereo not shown) [troglitazone, 5-[[4-[(3,4-dihydro-6-hydroxy-2,5,7,8-tetramethyl-2H-1-benzopyran-2-yl)methoxy]phenyl]methyl]-2,4-thiazolidinedione]
[1]
  induction of differentiation (lipid accumulation, adipocyte morphology): Induction of differentiation was also observed
[2]; 14, 19 and 26 days of treatment
  size of adipose tumors in nude mice compared to untreated controls: effective in reducing the size of adipose tumors
[2]; 14 days of treatment, w outlier
  Tumor volume (mean (SD)): 403(182) mm^3
[2]; 14 days of treatment, w/o outlier
  Tumor volume (mean (SD)): 361(110) mm^3
[2]; 19 days of treatment, w outlier
  Tumor volume (mean (SD)): 990(665) mm^3
[2]; 19 days of treatment, w/o outlier
  Tumor volume (mean (SD)): 830(389) mm^3
[2]; 26 days of treatment, w outlier
  Tumor volume (mean (SD)): 2601(2270) mm^3
[2]; 26 days of treatment, w/o outlier
  Tumor volume (mean (SD)): 2032(1179) mm^3

## CCc1ccc(CCOc2ccc(CC3SC(=O)NC3=O)cc2)nc1 (stereo not shown) [pioglitazone, 5-[4-[2-(5-ethyl-2-pyridyl)-ethoxy]benzyl]-2,4-thiazolidinedione]
[3]; NIH-vector cells, 5 days of treatment
  change of BrdU incorporation rate: did not change
[3]; NIH-vector, 5 μM pioglitazone for 5 days, BrdU pulse 1 hour
  BrdU positive %: 43%
[4]; 5 μM pioglitazone for 5 days, BrdU pulse 1 hour
  BrdU positive %: 11%
[4]; after 5 days of treatment
  decrease of BrdU incorporation into newly synthesized DNA: 85%
[5]; 3T3-F442A preadipocytes, after 5 days of treatment
  decrease in the BrdU incorporation rate: 80%
[5]; 3T3-F442A, 5 μM pioglitazone for 5 days, BrdU pulse 1 hour
  BrdU positive %: 14%
[6]; LS 857 cells, 10 μM, 7 days
  degree of morphologically recognizable differentiation: 40%
[7]
  degree of morphologically recognizable differentiation: 75%
[1]
  induction of differentiation (lipid accumulation, adipocyte morphology): readily accumulated lipid and adopted a morphology characteristic of mature cultured adipocytes
[8]
  lipid accumulation: No lipid accumulation
[9]
  percent lipid-containing cells: 60-70%
[10]
  percent lipid-containing cells: 0%
[11]
  induction of the mRNAs encoding aP2 and adipsin: induction of two markers of terminal adipocyte differentiation
[12]; LS857, of those cells containing lipid
  cells containing lipid that stain positive for BrdU: 2%
[12]; [15]
  cells containing visible cytoplasmic lipid: 35%
  cells stained positive for BrdU incorporation: 28%
[13]
  BrdU positive %: 9%

## CN(CCOc1ccc(CC2SC(=O)NC2=O)cc1)c1ccccn1 (stereo not shown) [BRL49653, rosiglitiazone]
[14]
  cytotoxic effects: No obvious cytotoxic effects

## Cc1cc2c(cc1C1(c3ccc(C(=O)O)cn3)CC1)C(C)(C)CCC2(C)C [LG268]
[6]; 50 nM LG268, 10 μM pioglitazone, alone or simultaneously
  adipocyte differentiation of LS857 cells: significant degree of adipocyte differentiation
[9]; NIH-PPARγ, confluent cells, 7 days, 1 μM pioglitazone, 50 nM LG268
  percent lipid-containing cells: 50-65%
[9]; confluent NIH-PPARγ cells, 7 days, 50 nM LG268, 1 μM pioglitazone
  stimulation of adipocyte differentiation: significant stimulation of adipocyte differentiation
[10]; NIH-vector cells
  adipogenic effect on NIH-vector cells: no effect
[10]
  percent lipid-containing cells: 0%
